Experimental data reported in ChEMBL document CHEMBL1140531, “New functional assay of P-glycoprotein activity using Hoechst 33342” (Bioorg Med Chem, 2007).

How the values were obtained:
[1] = molecular target: T1, ATP-dependent translocase ABCB1 (Homo sapiens, UniProt P08183); test: Inhibition of P-glycoprotein expressed in A2780/ADR cells by calcein AM assay; type: cell-based
[2] = molecular target: T1, ATP-dependent translocase ABCB1; test: Inhibition of P-glycoprotein expressed in MDCK-MDR1 cells by calcein AM assay; type: cell-based
[3] = molecular target: T1, ATP-dependent translocase ABCB1; test: Inhibition of P-glycoprotein by Hoechst assay
[4] = Cytotoxicity against human A2780/ADR cells after 72 hrs by MTT assay; type: functional, cell-based
[5] = system: A2780; test: Cytotoxicity against human A2780 cells after 72 hrs by MTT assay; type: functional, cell-based; details: A2780, 72 h

T1 sequence (P08183 whole entry): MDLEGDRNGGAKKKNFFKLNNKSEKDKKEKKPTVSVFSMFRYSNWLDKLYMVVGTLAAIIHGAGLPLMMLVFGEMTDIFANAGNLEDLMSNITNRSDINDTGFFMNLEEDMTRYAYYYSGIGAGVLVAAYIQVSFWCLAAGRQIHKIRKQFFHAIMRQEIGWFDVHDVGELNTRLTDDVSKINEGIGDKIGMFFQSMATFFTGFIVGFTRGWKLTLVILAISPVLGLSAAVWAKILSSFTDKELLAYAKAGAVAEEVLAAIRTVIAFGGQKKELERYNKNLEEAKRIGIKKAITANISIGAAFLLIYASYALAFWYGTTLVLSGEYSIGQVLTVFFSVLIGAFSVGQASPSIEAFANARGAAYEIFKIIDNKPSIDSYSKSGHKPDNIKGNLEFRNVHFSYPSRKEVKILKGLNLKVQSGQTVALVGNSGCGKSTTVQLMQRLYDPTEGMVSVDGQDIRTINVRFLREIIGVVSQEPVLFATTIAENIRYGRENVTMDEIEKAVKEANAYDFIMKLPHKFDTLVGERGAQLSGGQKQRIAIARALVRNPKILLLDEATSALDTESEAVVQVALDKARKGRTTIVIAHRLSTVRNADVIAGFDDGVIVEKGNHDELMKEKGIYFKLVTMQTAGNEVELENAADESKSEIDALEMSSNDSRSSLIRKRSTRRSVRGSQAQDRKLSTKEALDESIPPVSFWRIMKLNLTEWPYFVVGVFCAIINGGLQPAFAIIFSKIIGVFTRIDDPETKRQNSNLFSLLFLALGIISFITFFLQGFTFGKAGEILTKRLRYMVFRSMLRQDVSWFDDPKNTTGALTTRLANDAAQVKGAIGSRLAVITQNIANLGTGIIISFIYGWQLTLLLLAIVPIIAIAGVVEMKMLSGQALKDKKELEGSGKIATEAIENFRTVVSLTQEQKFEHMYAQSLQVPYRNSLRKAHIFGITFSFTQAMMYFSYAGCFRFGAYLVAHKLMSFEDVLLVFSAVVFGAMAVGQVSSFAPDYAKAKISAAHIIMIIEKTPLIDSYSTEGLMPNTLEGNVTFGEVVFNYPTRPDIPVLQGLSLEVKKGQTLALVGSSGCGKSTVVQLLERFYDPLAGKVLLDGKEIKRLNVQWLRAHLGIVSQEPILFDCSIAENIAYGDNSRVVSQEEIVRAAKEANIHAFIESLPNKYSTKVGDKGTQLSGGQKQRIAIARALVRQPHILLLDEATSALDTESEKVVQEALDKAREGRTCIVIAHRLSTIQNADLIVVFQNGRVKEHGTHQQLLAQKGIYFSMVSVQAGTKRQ

SMILES	IC50 [1] [µM]	Hill coefficient [2]	IC50 [3] [µM]	IC50 [4] [µM]	IC50 [5] [µM]
CCOc1ccc(-c2nc3cc(-c4nc5cc(N6CCN(C)CC6)ccc5[nH]4)ccc3[nH]2)cc1				38	1.91
COc1cc2c(c(OC)c1OC)-c1ccc(OC)c(=O)cc1[C@@H](NC(C)=O)CC2 [COLCHICINE]				0.372	0.0229
COc1cccc2c1C(=O)c1c(O)c3c(c(O)c1C2=O)C[C@@](O)(C(C)=O)C[C@@H]3O[C@H]1C[C@H](N)[C@H](O)[C@H](C)O1 [DAUNORUBICIN]				18.6	0.117
COc1ccc([C@@H]2Sc3ccccc3N(CCN(C)C)C(=O)[C@@H]2OC(C)=O)cc1 [DILTIAZEM]		1.15			
CC(=O)O[C@@]12CO[C@@H]1C[C@H](O)[C@@]1(C)C(=O)[C@H](O)C3=C(C)[C@@H](OC(=O)[C@H](O)[C@@H](NC(=O)OC(C)(C)C)c4ccccc4)C[C@@](O)([C@@H](OC(=O)c4ccccc4)[C@H]21)C3(C)C [DOCETAXEL]				0.0871	0.0049
COc1cccc2c1C(=O)c1c(O)c3c(c(O)c1C2=O)C[C@@](O)(C(=O)CO)C[C@@H]3O[C@H]1C[C@H](N)[C@H](O)[C@H](C)O1 [DOXORUBICIN]				13.5	0.0933
COC(=O)C1=C(C)NC(C)=C(C(=O)OCCN(C)Cc2ccccc2)C1c1cccc([N+](=O)[O-])c1 (stereo not drawn) [NICARDIPINE]		2.44			
CC(=O)[C@H]1CC[C@H]2[C@@H]3CCC4=CC(=O)CC[C@]4(C)[C@H]3CC[C@]12C [PROGESTERONE]		1.31			
COC(=O)[C@H]1[C@H]2C[C@@H]3c4[nH]c5cc(OC)ccc5c4CCN3C[C@H]2C[C@@H](OC(=O)c2cc(OC)c(OC)c(OC)c2)[C@@H]1OC [RESERPINE]	3.24	1.88	3.02		
COC(=O)c1ccccc1-c1c2ccc(=N)cc-2oc2cc(N)ccc12 [RHODAMINE123]				123	1.91
CC[C@]1(O)C[C@@H]2CN(CCc3c([nH]c4ccccc34)[C@@](C(=O)OC)(c3cc4c(cc3OC)N(C)[C@H]3[C@@](O)(C(=O)OC)[C@H](OC(C)=O)[C@]5(CC)C=CCN6CC[C@]43[C@@H]65)C2)C1 [VINBLASTINE]		2.06		2.82	0.0617

The next lines start with results.

IC50 [1] [µM]	Hill coefficient [2]	IC50 [3] [µM]	SMILES	IC50 [4] [µM]	IC50 [5] [µM]
0.339	2.89	0.331	COc1ccc(C(=O)Nc2ccccc2C(=O)Nc2ccc(CCN3CCc4cc(OC)c(OC)cc4C3)cc2)cc1OC		
0.813	2.6		O=C(Nc1ccc(CCN2CCc3ccccc3C2)cc1)Nc1ccccc1NC(=O)c1cnc2ccccc2c1		
0.851	2.01	0.513	COc1cc2c(cc1OC)CN(CCc1ccc(NC(=O)c3ccccc3NC(=O)c3ccccc3)cc1)CC2		
0.49	2.42	0.355	O=C(Nc1ccccc1C(=O)Nc1ccc(CCN2CCc3ccccc3C2)cc1)c1cnc2ccccc2c1		
	1.18		Cc1ccc(NC(=O)c2ccc(CN3CCN(C)CC3)cc2)cc1Nc1nccc(-c2cccnc2)n1 [IMATINIB]		
